Laboratory results as given in the NIST ThermoML archive (doi:10.1016/j.fluid.2014.11.020).
± gives the expanded uncertainty stated by the source.

Assay: activity coefficient (dimensionless); of the first substance listed, at infinite dilution; xn = mol fraction of the nth substance listed
Details: Liquid, Chromatography, x1 = 0

Row | Compound | activity coefficient (323.15 K) | activity coefficient (333.15 K) | activity coefficient (343.15 K)
1 | C1CCCCC1 [cyclohexane] + CCCCCCCCn1cc[n+](COCCCOC[n+]2ccn(CCCCCCCC)c2C)c1C.O=S(=O)([N-]S(=O)(=O)C(F)(F)F)C(F)(F)F.O=S(=O)([N-]S(=O)(=O)C(F)(F)F)C(F)(F)F | 2.41 ± 0.16 | 2.22 ± 0.15 | 2.11 ± 0.14
2 | C=CCCCC [hex-1-ene] + CCCCCCCCn1cc[n+](COCCCOC[n+]2ccn(CCCCCCCC)c2C)c1C.O=S(=O)([N-]S(=O)(=O)C(F)(F)F)C(F)(F)F.O=S(=O)([N-]S(=O)(=O)C(F)(F)F)C(F)(F)F | 2.33 ± 0.16 | 2.51 ± 0.17 | 2.35 ± 0.16
3 | C#CCCCC [1-hexyne] + CCCOC[n+]1ccn(Cc2ccccc2)c1.F[B-](F)(F)F | 5.61 ± 0.38 | 5.52 ± 0.38 | 5.42 ± 0.37
4 | CC(C)OC(C)C [diisopropyl ether] + CCCOC[n+]1ccc(N(C)C)cc1.O=S(=O)([N-]S(=O)(=O)C(F)(F)F)C(F)(F)F | 4.49 ± 0.31 | 4.54 ± 0.31 | 4.12 ± 0.28
5 | CCCO [propan-1-ol] + CN(C)c1cc[n+](COCCCOC[n+]2ccc(N(C)C)cc2)cc1.O=S(=O)([N-]S(=O)(=O)C(F)(F)F)C(F)(F)F.O=S(=O)([N-]S(=O)(=O)C(F)(F)F)C(F)(F)F | 1.51 ± 0.1 | 1.37 ± 0.09 | 1.22 ± 0.08
6 | CCCCO [butan-1-ol] + CCCCCCCCn1cc[n+](COCCCOC[n+]2ccn(CCCCCCCC)c2C)c1C.O=S(=O)([N-]S(=O)(=O)C(F)(F)F)C(F)(F)F.O=S(=O)([N-]S(=O)(=O)C(F)(F)F)C(F)(F)F | 0.84 ± 0.05 | 0.74 ± 0.05 | 0.69 ± 0.05
7 | CC#N [acetonitrile] + CCCOC[n+]1ccc(N(C)C)cc1.O=S(=O)([N-]S(=O)(=O)C(F)(F)F)C(F)(F)F | 0.51 ± 0.04 | 0.52 ± 0.04 | 0.52 ± 0.04
8 | c1ccccc1 [benzene] + N#C[N-]C#N.N#C[N-]C#N.c1ccc(Cn2cc[n+](COCCCOC[n+]3ccn(Cc4ccccc4)c3)c2)cc1 | 3.09 ± 0.21 | 2.95 ± 0.2 | 2.92 ± 0.2
9 | Cc1ccccc1 [toluene] + CCCCCCCCn1cc[n+](COCCCOC[n+]2ccn(CCCCCCCC)c2C)c1C.N#C[N-]C#N.N#C[N-]C#N | 0.94 ± 0.06 | 0.95 ± 0.06 | 0.97 ± 0.06
10 | c1ccccc1 [benzene] + CCCCCCCCn1cc[n+](COCCC)c1C.N#C[N-]C#N | 1.39 ± 0.09 | 1.23 ± 0.08 | 1.07 ± 0.07
11 | Cc1ccccc1 [toluene] + CCCOC[n+]1ccn(C)c1.O=S(=O)([N-]S(=O)(=O)C(F)(F)F)C(F)(F)F | 1.7 ± 0.11 | 1.68 ± 0.11 | 1.69 ± 0.11
12 | CC1CCCCC1 [methylcyclohexane] + CCCOC[n+]1ccn(C)c1.O=S(=O)([N-]S(=O)(=O)C(F)(F)F)C(F)(F)F | 13 ± 0.89 | 12.9 ± 0.88 | 13 ± 0.89
13 | c1ccncc1 [pyridine] + CCCCCCCCn1cc[n+](COCCC)c1C.N#C[N-]C#N | 0.66 ± 0.05 | 0.59 ± 0.04 | 0.54 ± 0.04
14 | C#CCCCCC [1-heptyne] + CCCOC[n+]1ccn(Cc2ccccc2)c1.O=S(=O)([N-]S(=O)(=O)C(F)(F)F)C(F)(F)F | 2.82 ± 0.19 | 2.42 ± 0.16 | 2.25 ± 0.15
15 | Cc1cccc(C)c1 [1,3-dimethylbenzene] + Cn1cc[n+](COCCCOC[n+]2ccn(C)c2)c1.N#C[N-]C#N.N#C[N-]C#N | 10.9 ± 0.75 | 10.7 ± 0.73 | 10.5 ± 0.72
16 | c1ccccc1 [benzene] + CCCOC[n+]1ccn(C)c1.F[B-](F)(F)F | 3.51 ± 0.24 | 3.45 ± 0.23 | 3.46 ± 0.24
17 | CC(C)CO [2-methyl-1-propanol] + CCCOC[n+]1ccn(C)c1.O=S(=O)([N-]S(=O)(=O)C(F)(F)F)C(F)(F)F | 2.18 ± 0.15 | 1.93 ± 0.13 | 1.76 ± 0.12
18 | CCO [ethanol] + N#C[N-]C#N.N#C[N-]C#N.c1ccc(Cn2cc[n+](COCCCOC[n+]3ccn(Cc4ccccc4)c3)c2)cc1 | 0.94 ± 0.06 | 0.89 ± 0.06 | 0.86 ± 0.06
19 | CCCCCCC [heptane] + CCCCCCCCn1cc[n+](COCCC)c1C.N#C[N-]C#N | 8.88 ± 0.61 | 8.18 ± 0.56 | 7.95 ± 0.54
20 | CCCO [propan-1-ol] + CCCCCCCCn1cc[n+](COCCC)c1C.O=S(=O)([N-]S(=O)(=O)C(F)(F)F)C(F)(F)F | 1.16 ± 0.07 | 1.06 ± 0.07 | 0.98 ± 0.06
21 | CC(C)OC(C)C [diisopropyl ether] + Cn1cc[n+](COCCCOC[n+]2ccn(C)c2)c1.O=S(=O)([N-]S(=O)(=O)C(F)(F)F)C(F)(F)F.O=S(=O)([N-]S(=O)(=O)C(F)(F)F)C(F)(F)F | 6.31 ± 0.43 | 6.51 ± 0.44 | 5.54 ± 0.38
22 | CCCCCCCCCC [decane] + CCCCCCCCn1cc[n+](COCCCOC[n+]2ccn(CCCCCCCC)c2C)c1C.N#C[N-]C#N.N#C[N-]C#N | 19.5 ± 1.3 | 19.5 ± 1.3 | 17.8 ± 1.2

Row | Compound | activity coefficient (323.15 K) | activity coefficient (333.15 K) | activity coefficient (343.15 K)
23 | CCCC(C)=O [pentan-2-one] + CN(C)c1cc[n+](COCCCOC[n+]2ccc(N(C)C)cc2)cc1.O=S(=O)([N-]S(=O)(=O)C(F)(F)F)C(F)(F)F.O=S(=O)([N-]S(=O)(=O)C(F)(F)F)C(F)(F)F | 0.69 ± 0.05 | 0.7 ± 0.05 | 0.71 ± 0.05
24 | CC(C)O [propan-2-ol] + CCCCCCCCn1cc[n+](COCCCOC[n+]2ccn(CCCCCCCC)c2C)c1C.O=S(=O)([N-]S(=O)(=O)C(F)(F)F)C(F)(F)F.O=S(=O)([N-]S(=O)(=O)C(F)(F)F)C(F)(F)F | 0.68 ± 0.05 | 0.61 ± 0.04 | 0.56 ± 0.04
25 | CCC(C)=O [butanone] + CCCOC[n+]1ccn(C)c1.F[B-](F)(F)F | 1.73 ± 0.12 | 1.6 ± 0.11 | 1.49 ± 0.1
26 | CCC(C)=O [butanone] + Cn1cc[n+](COCCCOC[n+]2ccn(C)c2)c1.N#C[N-]C#N.N#C[N-]C#N | 1.7 ± 0.11 | 1.56 ± 0.1 | 1.44 ± 0.09
27 | CC(C)O [propan-2-ol] + CCCOC[n+]1ccn(Cc2ccccc2)c1.F[B-](F)(F)F | 2.19 ± 0.15 | 1.96 ± 0.13 | 1.81 ± 0.12
28 | ClCCl [dichloromethane] + CCCOC[n+]1ccn(Cc2ccccc2)c1.N#C[N-]C#N | 0.58 ± 0.04 | 0.63 ± 0.04 | 0.68 ± 0.05
29 | Cc1ccccc1 [toluene] + CCCOC[n+]1ccn(C)c1.F[B-](F)(F)F | 6.06 ± 0.41 | 6.02 ± 0.41 | 5.98 ± 0.41
30 | C=CCCCC [hex-1-ene] + CCCCCCCCn1cc[n+](COCCC)c1C.O=S(=O)([N-]S(=O)(=O)C(F)(F)F)C(F)(F)F | 2.65 ± 0.18 | 2.38 ± 0.16 | 2.47 ± 0.17
31 | C1CCCCCC1 [cycloheptane] + CN(C)c1cc[n+](COCCCOC[n+]2ccc(N(C)C)cc2)cc1.O=S(=O)([N-]S(=O)(=O)C(F)(F)F)C(F)(F)F.O=S(=O)([N-]S(=O)(=O)C(F)(F)F)C(F)(F)F | 27 ± 1.9 | 34.9 ± 2.4 | 42.8 ± 2.9
32 | CCCCCCCC [octane] + CCCOC[n+]1ccn(C)c1.F[B-](F)(F)F | 292 ± 20 | 213 ± 15 | 182 ± 13
33 | CCO [ethanol] + CCCCCCCCn1cc[n+](COCCCOC[n+]2ccn(CCCCCCCC)c2C)c1C.N#C[N-]C#N.N#C[N-]C#N | 0.3 ± 0.03 | 0.29 ± 0.03 | 0.29 ± 0.03
34 | CCc1ccccc1 [ethylbenzene] + CCCCCCCCn1cc[n+](COCCC)c1C.N#C[N-]C#N | 1.48 ± 0.1 | 1.5 ± 0.1 | 1.54 ± 0.1
35 | CCCC(C)=O [pentan-2-one] + CCCCCCCCn1cc[n+](COCCCOC[n+]2ccn(CCCCCCCC)c2C)c1C.O=S(=O)([N-]S(=O)(=O)C(F)(F)F)C(F)(F)F.O=S(=O)([N-]S(=O)(=O)C(F)(F)F)C(F)(F)F | 0.29 ± 0.03 | 0.29 ± 0.03 | 0.3 ± 0.03
36 | CO [methanol] + Cn1cc[n+](COCCCOC[n+]2ccn(C)c2)c1.O=S(=O)([N-]S(=O)(=O)C(F)(F)F)C(F)(F)F.O=S(=O)([N-]S(=O)(=O)C(F)(F)F)C(F)(F)F | 0.76 ± 0.05 | 0.75 ± 0.05 | 0.68 ± 0.05
37 | CCCCO [butan-1-ol] + N#C[N-]C#N.N#C[N-]C#N.c1ccc(Cn2cc[n+](COCCCOC[n+]3ccn(Cc4ccccc4)c3)c2)cc1 | 1.8 ± 0.12 | 1.68 ± 0.11 | 1.61 ± 0.11
38 | CCCO [propan-1-ol] + CCCOC[n+]1ccc(N(C)C)cc1.O=S(=O)([N-]S(=O)(=O)C(F)(F)F)C(F)(F)F | 1.93 ± 0.13 | 1.72 ± 0.12 | 1.53 ± 0.1
39 | c1ccncc1 [pyridine] + CCCCCCCCn1cc[n+](COCCC)c1C.O=S(=O)([N-]S(=O)(=O)C(F)(F)F)C(F)(F)F | 0.35 ± 0.03 | 0.34 ± 0.03 | 0.3 ± 0.03
40 | CC#N [acetonitrile] + Cn1cc[n+](COCCCOC[n+]2ccn(C)c2)c1.O=S(=O)([N-]S(=O)(=O)C(F)(F)F)C(F)(F)F.O=S(=O)([N-]S(=O)(=O)C(F)(F)F)C(F)(F)F | 0.28 ± 0.03 | 0.28 ± 0.03 | 0.24 ± 0.03
41 | C1COCCO1 [1,4-dioxane] + CCCOC[n+]1ccc(N(C)C)cc1.O=S(=O)([N-]S(=O)(=O)C(F)(F)F)C(F)(F)F | 0.56 ± 0.04 | 0.59 ± 0.04 | 0.59 ± 0.04
42 | CCCCCCCCCCC [undecane] + Cn1cc[n+](COCCCOC[n+]2ccn(C)c2)c1.N#C[N-]C#N.N#C[N-]C#N | 938 ± 65 | 899 ± 62 | 797 ± 55
43 | CCCCCCCCCCCC [dodecane] + CCCCCCCCn1cc[n+](COCCCOC[n+]2ccn(CCCCCCCC)c2C)c1C.N#C[N-]C#N.N#C[N-]C#N | 28.7 ± 2 | 30.6 ± 2.1 | 27.9 ± 1.9
